assay: Human HepG2 cell viability assay in 384 well format; assay type: toxicity, cell-based; parameters: dose 125 nL, time 70.5 hour; concentration not given beside the values; details: HepG2 cells, read-out: Inhibition

Structure (SMILES) | cytotoxicity at 70.5 h [%]
O=C(NCC(O)c1ccccc1)Nc1cccs1 (stereo unspecified) | 18.8
O=C(Cc1cccs1)Nc1cnn(C2CCOCC2)c1 | -12.8
O=S(=O)(Nc1cnn(C2CCOCC2)c1)c1ccc(Br)cc1 | -5.21
COC(C)(CNS(=O)(=O)c1cn(C)cn1)c1ccccc1F (stereo unspecified) | 9.94
CCC(CNC(=O)C1CCC1)(OC)c1ccccc1 (stereo unspecified) | -1.73
CCNC(=O)NCC(CC)(OC)c1ccccc1 (stereo unspecified) | -5.55
O=C(NC1CC1)C1CCCN(c2cc(-n3cncn3)ncn2)C1 (stereo unspecified) | 13.5
O=C(CSC1CCCC1)N1CCN(c2ccc(-n3cncn3)nn2)CC1 | -2.51
COC(=O)c1cc(OC)c(OC)cc1N(C)S(C)(=O)=O | 41.7
OCc1cnc(Nc2ccccc2)nc1 | 10.1
COC(=O)C1CCCN1Cc1ccco1 (stereo unspecified) | -8.41
CNCc1ccc(Oc2cncc(C)n2)cc1 | -12.9
N#Cc1ccccc1Cn1cncn1 | 9.79
c1coc(CN2CCC3(CC2)CC(N2CCCC2)CO3)c1 (stereo unspecified) | 33.2
Cc1cc(C(=O)N[C@H]2CC[C@@]3(CCC(=O)N3C)CC2)no1 | -9.34
Cc1ccsc1C(=O)N1CC2CC1(C(=O)NCc1ccco1)C2 | 13.9
Cc1ccsc1C(=O)N1CC2CC1(C(=O)NCC1CC1)C2 | -16.8
CN(C)C(=O)N1CCC2(CCC(C(=O)N3CCCC3)O2)CC1 (stereo unspecified) | -16.3
CC(=O)N1CCC2(CC1)CN(C(C)=O)CC21CCNC1=O (stereo unspecified) | 16.2
CCN1C(=O)CCC12CCN(S(=O)(=O)c1ccccc1)CC2 | -4.14
O=C1Nc2ccccc2C1C1CCN(C(=O)C2CC2)CC1 (stereo unspecified) | -6.49
COc1ccc(CN2C[C@@H]3CN(S(=O)(=O)C4CC4)C[C@@H]3C2=O)cc1 | -9.53
COCCN1C(=O)CC[C@]12CC[C@@H](NC(=O)c1cc(C)on1)CC2 | -5.63

Structure (SMILES) | cytotoxicity at 70.5 h [%]
CN(C)C(=O)N1CCC(C2C(=O)Nc3ccccc32)CC1 (stereo unspecified) | -10.4
Cc1ccc(CN2CCc3c(C(=O)N(C)C)n[nH]c3C2)o1 | -8.34
CCN(C)C1COC2(CCN(C(=O)c3ccc4[nH]ccc4c3)CC2)C1 (stereo unspecified) | -11
O=C(Cc1ccco1)N1CCC2(CCOCC2COCC2CC2)CC1 (stereo unspecified) | -4.14
O=C(C1CCCCC1)N1CC2(CCNCC2)C1 | 1.58
CCOC(=O)N1CCC2(CCNC2)C1 (stereo unspecified) | -5.56
CCOC1COC2(CCN(Cc3ccco3)CC2)C1 (stereo unspecified) | 18.2
CC(C)NC(=O)N1CCC2(CC1)C(=O)NCCN2Cc1ccccc1 | -7.72
CC(C)C1COC2(CCN(Cc3ccco3)CC2)C1 (stereo unspecified) | -7.19
CC(=O)N1C[C@H]2CCCN(Cc3ccc(C)o3)[C@H]2C1 | -10.5
COc1ccc(C[C@H]2CN(C3CCOCC3)CC[C@@H]2OCC2CC2)cc1 | -3.98
CN(C[C@@H]1CCC[C@@H]2CN(c3ncccn3)C[C@@H]21)C1CC1 | -1.63
CC(C)N1CCC2(CCCN(c3nccc(C(F)(F)F)n3)C2)CC1 | -2.7
CN(C)C(=O)c1n[nH]c2c1CN(Cc1ccccn1)CC2 | -3.26
c1cc(CN2CCC3(CCOCC3COCC3CC3)CC2)co1 (stereo unspecified) | -4.78
CCN1CCc2[nH]nc(C(=O)N3CCCC3C)c2C1 (stereo unspecified) | 4.99
CCN1CC(=O)NCC12CCN(C(=O)c1ccco1)C2 (stereo unspecified) | -3.25
Cc1ccc(C(=O)N2C[C@@H]3CCN(C(C)C)C[C@@H]3C2)cn1 | 0.492
CCN1CCN(C)C2(CCN(Cc3cccc(C)n3)CC2)C1=O | -9.88
Cc1ccc(CN2CCC3(CC2)C(=O)N(CCO)CCN3C)o1 | -3.64
COc1ccc(CN2C[C@@H]3CN(Cc4ccncc4)C[C@@H]3C2=O)cc1 | -8.45
COc1ccc(CN2C[C@H]3CN(Cc4ccncc4)C(=O)[C@H]3C2)cc1 | -7.43
COc1ncccc1CN1CCc2[nH]nc(C(=O)N3CCCC3C)c2C1 (stereo unspecified) | -3.57

— ChEMBL document CHEMBL3507680, “University of Dundee, Gates Library screen for HepG2 cell viability”
